Measured values taken from patent publication US20220402901A1 (Bial - R&D Investments, S.A., priority 2019, published 2022).
Converted amounts (≈) assume the structure as drawn.

How the values were obtained:
[1] = target: T1, Human acid ceramidase (hACR) (Homo sapiens, UniProt Q13510); assay: Acid ceramidase biochemical fluorescent assay (cell lysates overexpressing acid ceramidase, substrate Rbm14-12); settings: 10 μg lysate protein, 1 hr preincubation at RT, pH 4.5, Rbm14-12 6.3 μM
T1 construct: expressed in transfected cells; lysates of cells overexpressing acid ceramidase
T1 sequence (Q13510 22-395): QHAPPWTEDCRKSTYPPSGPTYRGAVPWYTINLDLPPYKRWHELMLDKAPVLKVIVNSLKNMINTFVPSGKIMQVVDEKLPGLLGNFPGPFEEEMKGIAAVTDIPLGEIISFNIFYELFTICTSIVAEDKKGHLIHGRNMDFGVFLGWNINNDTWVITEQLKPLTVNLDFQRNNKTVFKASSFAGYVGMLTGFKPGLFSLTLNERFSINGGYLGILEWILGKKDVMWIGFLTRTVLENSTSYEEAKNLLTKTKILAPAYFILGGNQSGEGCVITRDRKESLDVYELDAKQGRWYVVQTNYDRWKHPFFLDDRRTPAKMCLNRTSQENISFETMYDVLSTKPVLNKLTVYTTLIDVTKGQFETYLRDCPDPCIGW
Experimental: The ability of exemplary compounds to inhibit acid ceramidase was measured.
Cell lysates overexpressing acid ceramidase were used as the enzyme source for compound potency determination in a biochemical fluorescent assay. Briefly, compounds were preincubated with 10 μg protein of cell lysates in a dose-response manner for 1 hr at RT in the assay buffer containing 25 mM NaAC and 100 mM NaCl, pH 4.5. The reaction was initiated by the addition of substrate Rbm14-12 at a final concentration of 6.3 μM. The reaction was run at RT for 1 hr before it was stopped by the addition of the stopping buffer containing 20% methanol (v/v), 1 mg/ml NaIO4, 0.1 M glycine, pH 10.6. The samples were incubated with the stopping buffer at RT for 1 hr to allow the fluorescent product to be formed. Finally the plate was read with SpectraMax i3 plate reader (Molecular Devices) at ex360 nm and em446 nm. Data were collected and used to determine the IC50 values of compounds by curve fitting to the four-parameter inhibition equation.
The symbol “A” indicates inhibition of less than 0.2 μM; the symbol “B” indicates inhibition in the range of 0.2 μM up to 1 μM; and the symbol “C” indicates inhibition of greater than 1 μM.

[2] = Compound solubility in water; format: physicochemical; settings: read-out: Solubility in H2O

| IC50 [1] | solubility [2] | SMILES |
| --- | --- | --- |
| < 0.2 µM | 41.8 µM (≈ 20.6 µg/mL) | CN(C)CCn1c(=O)oc2cc(N3CCN(C(=O)NCCCCc4ccccc4)C(C)(C)C3)ccc21 [Example 58, 4-[3-[2-(Dimethylamino)ethyl]-2-oxo-1,3-benzoxazol-6-yl]-2,2-dimethyl-N-(4-phenylbutyl)piperazine-1-carboxamide] |
| < 0.2 µM | 10 µM | C[C@H]1CC(c2ccc3c(c2)oc(=O)n3C)CCN1C(=O)NCCCCc1ccccc1 (mixture of isomers) [Example 20, (2S)-methyl-4-(3-methyl-2-oxo-1,3-benzoxazol-6-yl)-N-(4-phenylbutyl)piperidine-1-carboxamide] |
| < 0.2 µM | 1.3 µM (≈ 0.566 µg/mL) | Cn1c(=O)oc2cc(C3CCN(C(=O)NCCCCc4ccccc4)C(C)(C)C3)ccc21 (stereo not drawn) [Example 24, 2,2-Dimethyl-4-(3-methyl-2-oxo-1,3-benzoxazol-6-yl)-N-(4-phenylbutyl)piperidine-1-carboxamide] |
| > 1 µM | 10 µM (≈ 4.91 µg/mL) | CN1CCC(n2c(=O)oc3cc(C4CCN(C(=O)NCCCCc5ccccc5)CC4)ccc32)CC1 [Example 6, 4-[3-(1-Methyl-4-piperidyl)-2-oxo-1,3-benzoxazol-6-yl]-N-(4-phenylbutyl)piperidine-1-carboxamide] |
| > 1 µM | 51.4 µM (≈ 21.7 µg/mL) | Cn1c(=O)oc2cc(N3CCN(C(=O)NCCCCc4ccccc4)CC3=O)ccc21 [Example 63, 4-(3-Methyl-2-oxo-1,3-benzoxazol-6-yl)-3-oxo-N-(4-phenylbutyl)piperazine-1-carboxamide] |
| 0.2 to 1 µM | 6 µM (≈ 2.45 µg/mL) | Cn1c(=O)oc2cc(N3CCN(C(=O)NCCCCc4ccccc4)CC3)ccc21 [Example 46, 4-(3-Methyl-2-oxo-1,3-benzoxazol-6-yl)-N-(4-phenylbutyl)piperazine-1-carboxamide] |
| < 0.2 µM | 1.7 µM (≈ 0.635 µg/mL) | CCCCCNC(=O)N1CCC(c2ccc3c(c2)oc(=O)n3C)CC1(C)C (stereo not drawn) [Example 28, 2,2-Dimethyl-4-(3-methyl-2-oxo-1,3-benzoxazol-6-yl)-N-pentylpiperidine-1-carboxamide] |
| < 0.2 µM | 0.5 µM (≈ 0.218 µg/mL) | CC1CN(c2ccc3c(c2)oc(=O)n3C)CC(C)N1C(=O)NCCCCc1ccccc1 (stereo not drawn) [Example 59, 2,6-Dimethyl-4-(3-methyl-2-oxo-1,3-benzoxazol-6-yl)-N-(4-phenylbutyl)piperazine-1-carboxamide] |
| > 1 µM | < 1 µM | Cn1c(=O)oc2cc(C3CCN(C(=O)NCCCCc4ccccc4)C(=O)C3)ccc21 (stereo not drawn) [Example 35, 4-(3-Methyl-2-oxo-1,3-benzoxazol-6-yl)-2-oxo-N-(4-phenylbutyl)piperidine-1-carboxamide] |
| > 1 µM | 224 µM (≈ 94.6 µg/mL) | CN1CCN(C(=O)NCCCCc2ccccc2)C(c2ccc3c(c2)oc(=O)n3C)C1 (stereo not drawn) [Example 40, 4-Methyl-2-(3-methyl-2-oxo-1,3-benzoxazol-6-yl)-N-(4-phenylbutyl)piperazine-1-carboxamide] |
| > 1 µM | 13 µM (≈ 5.3 µg/mL) | Cn1c(=O)oc2c(C3CCN(C(=O)NCCCCc4ccccc4)CC3)cccc21 [Example 7, 4-(3-Methyl-2-oxo-1,3-benzoxazol-7-yl)-N-(4-phenylbutyl)piperidine-1-carboxamide] |
| < 0.2 µM | 0.9 µM (≈ 0.36 µg/mL) | Cn1c(=O)oc2cc(N3CCN(C(=O)NCCCCC4CC4)C(C)(C)C3)ccc21 [Example 52, N-(4-Cyclopropylbutyl)-2,2-dimethyl-4-(3-methyl-2-oxo-1,3-benzoxazol-6-yl)piperazine-1-carboxamide] |
| > 1 µM | 20.5 µM (≈ 7.64 µg/mL) | Cn1c(=O)oc2cc(N3CCN(C(=O)NCCC4CC4)C(C)(C)C3)ccc21 [Example 53, N-(2-Cyclopropylethyl)-2,2-dimethyl-4-(3-methyl-2-oxo-1,3-benzoxazol-6-yl)piperazine-1-carboxamide] |
| < 0.2 µM | 0.3 µM (≈ 0.131 µg/mL) | Cn1c(=O)oc2cc(N3CCN(C(=O)NCCCCc4ccccc4)C(C)(C)C3)ccc21 [Example 50, 2,2-Dimethyl-4-(3-methyl-2-oxo-1,3-benzoxazol-6-yl)-N-(4-phenylbutyl)piperazine-1-carboxamide] |
| 0.2 to 1 µM | 4.3 µM (≈ 1.82 µg/mL) | C[C@@H]1CN(c2ccc3c(c2)oc(=O)n3C)CCN1C(=O)NCCCCc1ccccc1 [Example 48, (2R)-2-Methyl-4-(3-methyl-2-oxo-1,3-benzoxazol-6-yl)-N-(4-phenylbutyl)piperazine-1-carboxamide] |
| < 0.2 µM | 9.4 µM (≈ 4.11 µg/mL) | Cn1c(=O)oc2cc(C3CCN(C(=O)NCCOCc4ccccc4)C(C)(C)C3)ccc21 (stereo not drawn) [Example 27, N-(2-Benzyloxyethyl)-2,2-dimethyl-4-(3-methyl-2-oxo-1,3-benzoxazol-6-yl)piperidine-1-carboxamide] |
| < 0.2 µM | 26 µM (≈ 10.6 µg/mL) | Cn1c(=O)oc2cc(C3CCN(C(=O)NCCc4ccccc4)C(C)(C)C3)ccc21 (stereo not drawn) [Example 25, 2,2-Dimethyl-4-(3-methyl-2-oxo-1,3-benzoxazol-6-yl)-N-(2-phenylethyl)piperidine-1-carboxamide] |
| 0.2 to 1 µM | 2.4 µM (≈ 0.899 µg/mL) | CCCCCNC(=O)N1CCN(c2ccc3c(c2)oc(=O)n3C)CC1(C)C [Example 54, 2,2-Dimethyl-4-(3-methyl-2-oxo-1,3-benzoxazol-6-yl)-N-pentyl-piperazine-1-carboxamide] |
| > 1 µM | 250 µM (≈ 116 µg/mL) | CN(C)CCn1c(=O)oc2cc(N3CCN(C(=O)NCCCCc4ccccc4)CC3)ccc21 [Example 47, 4-[3-[2-(Dimethylamino)ethyl]-2-oxo-1,3-benzoxazol-6-yl]-N-(4-phenylbutyl)piperazine-1-carboxamide] |
| > 1 µM | 143 µM (≈ 47.4 µg/mL) | CC(C)CNC(=O)N1CCC(c2cccc3c2oc(=O)n3C)CC1 [Example 8, N-iso-Butyl-4-(3-methyl-2-oxo-1,3-benzoxazol-7-yl)piperidine-1-carboxamide] |
| < 0.2 µM | 5.8 µM (≈ 2.44 µg/mL) | Cn1c(=O)oc2cc(C3CCN(C(=O)NCCCc4ccccc4)C(C)(C)C3)ccc21 (stereo not drawn) [Example 26, 2,2-Dimethyl-4-(3-methyl-2-oxo-1,3-benzoxazol-6-yl)-N-(3-phenylpropyl)piperidine-1-carboxamide] |
| 0.2 to 1 µM | 56 µM (≈ 22 µg/mL) | C[C@H]1CC(c2ccc3c(c2)oc(=O)n3C)CCN1C(=O)NCCc1ccccc1 (stereo partly drawn) [Example 21, (2S)-Methyl-4-(3-methyl-2-oxo-1,3-benzoxazol-6-yl)-N-(2-phenylethyl)piperidine-carboxamide] |
| > 1 µM | 30 µM (≈ 12.2 µg/mL) | Cn1c(=O)oc2cc(C3CCCCN3C(=O)NCCCCc3ccccc3)ccc21 (stereo not drawn) [Example 37, 2-(3-Methyl-2-oxo-1,3-benzoxazol-6-yl)-N-(4-phenylbutyl)piperidine-1-carboxamide] |
| < 0.2 µM | 6.8 µM (≈ 3.06 µg/mL) | Cn1c(=O)oc2cc(N3CCN(C(=O)NCCCCc4ccccc4)C(C)(C)C3=O)ccc21 [Example 64, 2,2-Dimethyl-4-(3-methyl-2-oxo-1,3-benzoxazol-6-yl)-3-oxo-N-(4-phenylbutyl)piperazine-1-carboxamide] |
| > 1 µM | 15 µM (≈ 6.11 µg/mL) | Cn1c(=O)oc2ccc(C3CCN(C(=O)NCCCCc4ccccc4)CC3)cc21 [Example 9, 4-(3-Methyl-2-oxo-1,3-benzoxazol-5-yl)-N-(4-phenylbutyl)piperidine-1-carboxamide] |
| < 0.2 µM | 14.8 µM (≈ 6.48 µg/mL) | Cn1c(=O)oc2cc(C3COCC(C)(C)N3C(=O)NCCCCc3ccccc3)ccc21 (stereo not drawn) [Example 42, 3,3-Dimethyl-5-(3-methyl-2-oxo-1,3-benzoxazol-6-yl)-N-(4-phenylbutyl) morpholine-4-carboxamide] |
| > 1 µM | 135 µM (≈ 57 µg/mL) | CN1CCN(C(=O)NCCCCc2ccccc2)CC1c1ccc2c(c1)oc(=O)n2C (stereo not drawn) [Example 41, 4-Methyl-3-(3-methyl-2-oxo-1,3-benzoxazol-6-yl)-N-(4-phenylbutyl)piperazine-1-carboxamide] |
| < 0.2 µM | 18.9 µM (≈ 8.52 µg/mL) | Cn1c(=O)oc2cc(N3CC(C)(C)N(C(=O)NCCCCc4ccccc4)CC3=O)ccc21 [Example 65, 2,2-Dimethyl-4-(3-methyl-2-oxo-1,3-benzoxazol-6-yl)-5-oxo-N-(4-phenylbutyl)piperazine-1-carboxamide] |
| < 0.2 µM | 2.2 µM | CC1CC(c2ccc3c(c2)oc(=O)n3C)CCN1C(=O)NCCCCc1ccccc1 (mixture of isomers) [Example 16, 2-methyl-4-(3-methyl-2-oxo-1,3-benzoxazol-6-yl)-N-(4-phenylbutyl)piperidine-1-carboxamide] |

| SMILES | IC50 [1] | solubility [2] |
| --- | --- | --- |
| Cn1c(=O)oc2cc(C3CC4CCC(C3)N4C(=O)NCCCCc3ccccc3)ccc21 (stereo not drawn) [Example 33, 3-(3-Methyl-2-oxo-1,3-benzoxazol-6-yl)-N-(4-phenylbutyl)-8-azabicyclo[3.2.1]octane-8-carboxamide] | < 0.2 µM | 3.2 µM (≈ 1.39 µg/mL) |
